Tests used:
rats Wistar mâles = experiment: Normolipemic and/or hypoglycemic activity in Triton W.R.-induced hyperlipidemia in fasted rats; assay type: in vivo; design: Cholestérol Total / Cholestérol Estérifié / Trigly-cérides: unit not given here; settings: fasted rats given Triton W.R. 200mg/kg i.v.; for Cholestérol Estérifié / Cholestérol Total / Glucose / Lipides totaux / Trigly-cérides: product given simultaneously, i.p. 100 mg/kg or oral 500 mg/kg (route not stated per product), blood sampled six hours later; for Cholestérol Rapport E/T: ratio esterified/total cholesterol, product i.p. 100 mg/kg or oral 500 mg/kg, six hours later
Procedure: Les essais sont réalisés sur des groupes de 5 rats Wistar mâles (150 à 175g). Les produits testés sont administrés soit par voie intrapéritonéale, à raison de 100 mg/kg dans du soluté isotonique, soit par voie orale, en solution aqueuse à 3% de gomme adragante (1 ml/100g de poids corporel) en quantité correspondant à 500 mg/kg.
Pour ces essais, on provoque une hyperlipidémie chez les animaux au moyen du produit commercialisé par la Société ROHM et HAAS sous le nom de Triton W.R. Chez le rat à jeun, l'injection intraveineuse de Triton entraine une hyperlipidémie particulièrement nette pour les triglycérides .et de façon moindre pour les lipides totaux.
Cette hyperlipidémie est combattue par l'action des substances actives selon l'invention.
Le protocole de l'essai est le suivant. Les rats sont mis à jeûner pendant 18 heures. Le Triton W.R. est administré par voie intraveineuse en solution aqueuse à 10% à raison de 200mg/kg.
Simultanément, les rats reçoivent les produits à tester. Six heures plus tard, on effectue les dosages de façon traditionnelle sur des échantillons sanguins.

souris Swiss = experiment: Acute toxicity in mice (lethal dose 50, Behrens and Karber); assay type: in vivo; settings: dose 1,5g/kg, voie intrapéritonéale; mice observed 8 days

SMILES | Cholestérol Estérifié (rats Wistar mâles) | Cholestérol Total (rats Wistar mâles) | Glucose (rats Wistar mâles) | Lipides totaux (rats Wistar mâles) | Trigly-cérides (rats Wistar mâles) | Cholestérol Rapport E/T (rats Wistar mâles) | animaux encore en vie (souris Swiss)
O=S(=O)(CC1(O)CCCCC1)c1ccccc1 [Exemple 21] | 2,06 | 3,09 | 0,89 g/l | 9,56 g/l | 2,23 | 66,0 | 
CCC(C)(O)CS(=O)(=O)c1ccccc1 (stereo not shown) [Exemple 20] | 1,64 | 2,20 | 0,84 g/l | 7,36 g/l | 2,07 | 76,8 | 
CC(C)(O)CS(=O)(=O)c1ccccc1 [Exemple 19] | 1,09 | 2,04 | 0,78 g/l | 7,62 g/l | 2,84 | 55,6 | 
O=S(=O)(CC1(O)CCCCC1)c1ccc(F)cc1 [Exemple 32] | 0,73 | 1,14 | 0,92 g/l | 10,99 g/l | 4,00 | 65,17 | 
O=S(=O)(CC(O)c1ccc(Cl)cc1)c1ccccc1 (stereo not shown) [Exemple 23] |  |  |  |  |  |  | 5 animaux sur 5 sont encore en vie
O=S(=O)(CC(O)c1ccccc1)c1ccccc1 (stereo not shown) [Exemple 22] | 1,89 | 2,28 | 1,18 g/l | 8,50 g/l | 3,95 | 82,4 | 
CC(C)(Oc1ccc(Cl)cc1)C(=O)OCCCS(=O)(=O)c1ccccc1 [Exemple 47] | 0,90 | 1,52 | 0,97 g/l | 10,28 g/l | 4,56 | 59,99 | 
O=S(=O)(CC(O)c1ccccc1)c1ccc(F)cc1 (stereo not shown) [Exemple 28] | 0,66 | 1,24 | 1,22 g/l | 6,0 g/l | 4,31 | 54,4 | 
O=S(=O)(CC(O)c1ccc(F)cc1)c1ccccc1 (stereo not shown) [Exemple 24] | 0,98 | 1,48 | 1,12 g/l | 15,30 g/l | 1,80 | 69,40 | 
CC(C(O)(c1ccccc1)c1ccccc1)S(=O)(=O)c1ccccc1 (stereo not shown) [Exemple 27] |  |  |  |  |  |  | 5 animaux sur 5 sont encore en vie
O=S(=O)(CCCO)c1ccccc1 [Exemple 40] | 0,99 | 1,56 | 0,93 g/l | 3,76 g/l |  | 61,2 | 
